Assay results: patent publication US12679838B2, “Aromatic compound and application thereof in antitumor drug” (Shanghai Zheye Biotechnology Co., Ltd., priority 2020, dated 2026)
Read-outs that look alike come from different tables or passages of the source.

Columns and labels:
[1] = tested on: Langendorff isolated perfused heart; experiment: In vitro isolated heart perfusion test (Langendorff); design: species or system Guinea pig; details: 3.3 μM
Source text: Test method: influences of Langendorff isolated perfused heart test compounds on electrocardiogram, wherein the test method used in this test was as follows: [table] Test compounds: compound 3-2M and the compound in Example 41 of patent WO2018217651A1 (i.e., AMG510).

[2] = tested on: NCI-H358 tumor cells xenograft; experiment: Pharmacodynamics test of xenograft tumor model of NCI-H358 in nude mice; format: in vivo, Balb/c Nude mice; details: NCI-H358 xenograft, 100 mg/kg, QD×15 days, oral gavage
Experimental: Animal species and number: Balb/c Nude; 6 animals per group.
Samples for testing: compound 3-2M, compound 3-16M, TM-1, TM-3, and AMG510 (obtained by purchasing).
Test groups: blank solvent control group; compound 3-2M (100 mg/kg, QD×15 days), compound 3-16M (100 mg/kg, QD×15 days), TM-1 (100 mg/kg, QD×15 days), TM-3 (100 mg/kg, QD×15 days); and AMG510 (100 mg/kg, QD×15 days).
Animal model establishment: NCI-H358 tumor cells at logarithmic phase were cultured and collected in vitro, and inoculated subcutaneously on the right side of the back of nude mice at a quantity of 5×10^6 cells/each, and the tumor-bearing nude mice were randomly grouped when the tumor volume grew to 150-300 mm^3. Subsequently, each group of animals was administered and the day of the first administration was defined as day 1 of the test.
Administration route and frequency: oral gavage; and once a day.
General state observation: observation time and frequency: once a day; observation index or content: including, but is not limited to local administration, appearance and signs, general behavioral activities, mental status, death and other abnormal manifestations of the animals. The animals were euthanized at the end of the test.
Tumor volume calculation: V=½×long diameter× short diameter^2 (mm^3). Tumor growth inhibition ratio TGI (%) was used to evaluate the tumor suppressive efficacy of the compounds. TGI (%)=[1-(mean tumor volume at the end of administration of the treatment group−mean tumor volume at the beginning of administration of the treatment group)/(mean tumor volume at the end of administration of the control group−mean tumor volume at the beginning of administration of the control group)]×100%.

NCI-H358 = experiment: Cell proliferation inhibitory activity of NCI-H358, 3D model test (agarose colony formation); format: cell-based; details: Homo sapiens, NCI-H358; agarose gel, colony formation, NBT staining
Experimental: 100 μl of high concentration agarose gel was spread in a 96-well plate as a bottom agarose gel layer; low concentration agarose and growth medium containing cells were mixed and spread on the bottom agarose gel layer, cooled and solidified and incubated overnight at 37° C.; a test compound was prepared into a mother liquor with DMSO, diluted with a RPMI 1640 growth medium in a concentration gradient, and the gradient diluted solution of the compound to be tested with different concentrations was added into 96 wells containing upper agarose gel cells, and solvent control wells were set and placed in a carbon dioxide incubator for culture. During the period, the drug-containing medium was changed to observe the cell growth. After the culture, the cells were stained with NBT, the number of colony formation was counted, and the IC50 value of the compound inhibiting cell proliferation was obtained.

NCI-H358 cells = experiment: Cell proliferation inhibitory activity, NCI-H358 (CellTiter-Glo); format: cell-based; details: for IC50: Homo sapiens
Experimental: (§1) NCI-H358 cells in an exponential growth phase were digested with trypsin-EDTA and plated in a 96-well plate at 2000-3000 cells per well and incubated overnight at 37° C. with 5% CO2. A test compound was prepared as a mother liquor with DMSO, diluted with a RPMI 1640 growth medium in a concentration gradient and added to the 96-well plate and incubated for 72 hours at 37° C. in a 5% CO2 incubator. After incubation, an equal volume of CellTiter-Glo detection reagent was added to each well and incubated after shaking, and a chemiluminescence value was measured by a microplate reader, and the IC50 value for the inhibition of NCI-H358 cell proliferation was fitted and calculated by GraphPad Prism software.
The inhibitory effect of the compounds on the proliferation activity of H358 cells was tested with reference to the method of the biological test 2, and the results were as follows:
The inhibitory effect of the compounds on the proliferation activity of NCI-H358 cells was tested with reference to the method of the biological test 2, and the results were as follows.

MIA PaCa-2 cells = experiment: Cell proliferation inhibitory activity, MIA PaCa-2 (CellTiter-Glo); format: cell-based; details: for IC50: Homo sapiens, MIA PaCa-2 cells, 72 hours
Experimental: as §1, with “MIA PaCa-2” for “NCI-H358”, “DMEM” for “RPMI 1640”

[3] = NCI-H358, biological test 3, H358 cells, read-out: Cell proliferation inhibitory activity IC50 value of H358
[4] = NCI-H358, 72 h, biological test 2, NCI-H358 cells, 72 hours, read-out: Cell proliferation inhibitory activity IC50 value of H358
[5] = NCI-H358, biological test 7, NCI-H358 cells, read-out: Cell proliferation inhibitory activity IC50 value of NCI-H358

Structure (SMILES): C=CC(=O)N1CCN(c2nc(=O)n(-c3c(C)ccnc3C(C)C)c3nc(-c4c(O)cccc4F)c(F)cc23)[C@@H](C)C1 [AMG510, reference compound]
- effect on the heart rate of the isolated heart (in words) [1]: significant effect on reducing the heart rate
- HR (heart rate) change % ([1]; Guinea pig isolated heart): C (“C” represents that the heart rate decreases by greater than or equal to 15%)
- Tumor suppression ratio (%) [2]: +++ (“+++” represents that the tumor suppression ratio is between 101% and 140%)
- IC50 (NCI-H358): 9.3 nM

Structure (SMILES): C=CC(=[18O])N1CCN(c2nc(=O)n(-c3c(C)ccnc3C(C)C)c3nc(-c4ccccc4C=O)c(Cl)cc23)[C@@H](C)C1 [Compound 3-1MIS]
- cell proliferation inhibitory activity against KRAS G12C mutant cells NCI-H358 (in words) (NCI-H358 cells): significant cell proliferation inhibitory activities
- IC50 (NCI-H358 cells; [3]): < 50 nM

Structure (SMILES): C=CC(=[18O])N1CCN(c2nc(=O)n(-c3c(CC)ccnc3C(C)C)c3nc(-c4ccccc4C=O)c(Cl)cc23)[C@@H](C)C1 [Compound 3-2MIS]
- cell proliferation inhibitory activity against KRAS G12C mutant cells NCI-H358 (in words) (NCI-H358 cells): significant cell proliferation inhibitory activities
- IC50 (NCI-H358 cells; [3]): < 50 nM

Structure (SMILES): C=CC(=O)N1CCN(c2nc(=O)n(-c3c(C)ccnc3C(C)C)c3nc(-c4ccccc4C=O)c(Cl)cc23)[C@@H](C)C1 [Compound 3-2]
- cell proliferation inhibitory activity against KRAS G12C mutant cells MIA PaCa-2 (in words) (MIA PaCa-2 cells): significant cell proliferation inhibitory activities
- IC50 (MIA PaCa-2 cells): < 50 nM
- cell proliferation inhibitory activity against KRAS G12C mutant cells NCI-H358 (in words) (NCI-H358 cells): significant cell proliferation inhibitory activities
- IC50 (NCI-H358 cells; [4]): ≤ 50 nM

Structure (SMILES): C=CC(=[18O])N1CCN(c2nc(=O)n(-c3c(C)ccnc3C(C)C)c3nc(-c4c(F)cccc4C=O)c(Cl)cc23)[C@@H](C)C1 [Compound 3-3MIS]
- cell proliferation inhibitory activity against KRAS G12C mutant cells NCI-H358 (in words) (NCI-H358 cells): significant cell proliferation inhibitory activities
- IC50 (NCI-H358 cells; [3]): < 50 nM

Structure (SMILES): C=CC(=[18O])N1C[C@H](C)N(c2nc(=O)n(-c3c(C)ccnc3C(C)C)c3nc(-c4ccccc4C=O)c(Cl)cc23)[C@@H](C)C1 [Compound 3-4MIS]
- cell proliferation inhibitory activity against KRAS G12C mutant cells NCI-H358 (in words) (NCI-H358 cells): significant cell proliferation inhibitory activities
- IC50 (NCI-H358 cells; [3]): < 50 nM

Structure (SMILES): [2H]C(=O)c1ccccc1-c1nc2c(cc1Cl)c(N1CCN(C(=[18O])C=C)C[C@@H]1C)nc(=O)n2-c1c(C)ccnc1C(C)C [Compound 3-5MIS]
- cell proliferation inhibitory activity against KRAS G12C mutant cells NCI-H358 (in words) (NCI-H358 cells): significant cell proliferation inhibitory activities
- IC50 (NCI-H358 cells; [3]): < 50 nM

Structure (SMILES): [2H]C(=O)c1ccccc1-c1nc2c(cc1Cl)c(N1CCN(C(=O)C=C)C[C@@H]1C)nc(=O)n2-c1c(CC)ccnc1C(C)C [Compound 3-6B]
- cell proliferation inhibitory activity against KRAS G12C mutant cells NCI-H358 (in words) (NCI-H358 cells): significant cell proliferation inhibitory activities
- IC50 (NCI-H358 cells; [4]): ≤ 50 nM
- IC50 (NCI-H358 cells; [5]): < 50 nM

Structure (SMILES): [2H]C(=O)c1ccccc1-c1nc2c(cc1Cl)c(N1CCN(C(=[18O])C=C)C[C@@H]1C)nc(=O)n2-c1c(CC)ccnc1C(C)C [Compound 3-6MIS]
- cell proliferation inhibitory activity against KRAS G12C mutant cells NCI-H358 (in words) (NCI-H358 cells): significant cell proliferation inhibitory activities
- IC50 (NCI-H358 cells; [3]): < 50 nM

Structure (SMILES): C=CC(=O)N1CCN(c2nc(=O)n(-c3c(C)ccnc3C(C)C)c3nc(-c4c(F)cccc4C=O)c(Cl)cc23)[C@@H](C)C1 [Compound 3-6P]
- IC50 (NCI-H358 cells; [4]): > 50 nM

Structure (SMILES): C=CC(=O)N1CCN(c2nc(=O)n(-c3c(C)ccnc3C(C)C)c3nc(-c4c(F)cccc4C=O)c(Cl)cc23)[C@@H](C)C1 [Compound 3-6]
- cell proliferation inhibitory activity against KRAS G12C mutant cells MIA PaCa-2 (in words) (MIA PaCa-2 cells): significant cell proliferation inhibitory activities
- IC50 (MIA PaCa-2 cells): < 50 nM
- cell proliferation inhibitory activity against KRAS G12C mutant cells NCI-H358 (in words) (NCI-H358 cells): significant cell proliferation inhibitory activities

Structure (SMILES): [2H]C(=O)c1cccc(F)c1-c1nc2c(cc1Cl)c(N1CCN(C(=[18O])C=C)C[C@@H]1C)nc(=O)n2-c1c(C)ccnc1C(C)C [Compound 3-7MIS]
- cell proliferation inhibitory activity against KRAS G12C mutant cells NCI-H358 (in words) (NCI-H358 cells): significant cell proliferation inhibitory activities
- IC50 (NCI-H358 cells; [3]): < 50 nM

Structure (SMILES): [2H]C(=O)c1ccccc1-c1nc2c(cc1Cl)c(N1[C@@H](C)CN(C(=[18O])C=C)C[C@@H]1C)nc(=O)n2-c1c(C)ccnc1C(C)C [Compound 3-8MIS]
- cell proliferation inhibitory activity against KRAS G12C mutant cells NCI-H358 (in words) (NCI-H358 cells): significant cell proliferation inhibitory activities
- IC50 (NCI-H358 cells; [3]): < 50 nM

Structure (SMILES): [2H]C(=O)c1ccccc1-c1nc2c(cc1Cl)c(N1[C@@H](C)CN(C(=O)C=C)C[C@@H]1C)nc(=O)n2-c1c(C)ccnc1C(C)C [Compound 3-14]
- cell proliferation inhibitory activity against KRAS G12C mutant cells NCI-H358 (in words) (NCI-H358 cells): significant cell proliferation inhibitory activities
- IC50 (NCI-H358 cells; [4]): ≤ 50 nM

Structure (SMILES): C=CC(=O)N1C[C@H](C)N(c2nc(=O)n(-c3c(C)ccnc3C(C)C)c3nc(-c4ccccc4C=O)c(Cl)cc23)C[C@H]1C [Compound 3-17M]
- cell proliferation inhibitory activity against KRAS G12C mutant cells MIA PaCa-2 (in words) (MIA PaCa-2 cells): significant cell proliferation inhibitory activities
- IC50 (MIA PaCa-2 cells): < 50 nM

Structure (SMILES): C=CC(=O)N1C[C@H](C)N(c2nc(=O)n(-c3c(C)ccnc3C(C)C)c3nc(-c4c(F)cccc4C=O)c(Cl)cc23)C[C@H]1C [Compound 3-19M]
- cell proliferation inhibitory activity against KRAS G12C mutant cells MIA PaCa-2 (in words) (MIA PaCa-2 cells): significant cell proliferation inhibitory activities
- IC50 (MIA PaCa-2 cells): < 50 nM

Structure (SMILES): [2H]C(=O)c1ccccc1-c1nc2c(cc1Cl)c(N1CCN(C(=O)C=C)C[C@]1([2H])C)nc(=O)n2-c1c(C)ccnc1C(C)C [Compound 3-28M]
- cell proliferation inhibitory activity against KRAS G12C mutant cells NCI-H358 (in words) (NCI-H358 cells): significant cell proliferation inhibitory activities
- IC50 (NCI-H358 cells; [4]): ≤ 50 nM

Structure (SMILES): C=CC(=O)N1CCN(c2nc(=O)n(-c3c(C(C)C)ncnc3C(C)C)c3nc(-c4ccccc4C=O)c(Cl)cc23)[C@@H](C)C1 [Compound 3-31]
- cell proliferation inhibitory activity against KRAS G12C mutant cells NCI-H358 (in words) (NCI-H358 cells): significant cell proliferation inhibitory activities
- IC50 (NCI-H358 cells; [5]): < 50 nM

Structure (SMILES): C=CC(=O)N1CCN(c2nc(=O)n(-c3c(C)ccnc3C(C)C)c3nc(-c4ccccc4C(C)=O)c(Cl)cc23)[C@@H](C)C1 [TM-1, reference compound]
- IC50 (NCI-H358 cells; [5]): 50 to 150 nM
- Tumor suppression ratio (%) [2]: ++ (“++” represents that the tumor suppression ratio is between 60% and 100%)

Structure (SMILES): C=CC(=O)N1C[C@H](C)N(c2nc(=O)n(-c3c(C)ccnc3C(C)C)c3nc(-c4ccccc4C(N)=O)c(Cl)cc23)C[C@H]1C [TM-2, reference compound]
- IC50 (NCI-H358 cells; [5]): > 150 nM

Structure (SMILES): C=CC(=O)N1C[C@H](C)N(c2nc(=O)n(-c3c(C)ccnc3C(C)C)c3nc(-c4ccccc4C(=O)O)c(Cl)cc23)C[C@H]1C [TM-3, reference compound]
- IC50 (NCI-H358 cells; [5]): > 150 nM
- Tumor suppression ratio (%) [2]: + (“+” represents that the tumor suppression ratio is less than 60%)
